One substance from patent publication US20070196886A1 (priority 2004, published 2007) can be followed below.

For test [1], the target named is T1, RNAP holoenzyme (Escherichia coli, UniProt P0A8T7+P0A8V2). The class given is biochemical. The note with it: FIG. 3F. How it is done:
Following 15 min at 37° C., 0.5 μl 1 mg/ml heparin was added, and, following a further 2 min at 37° C., 1 μl of 0.25-5 mM (γ-AmNS)UTP (Molecular Probes) was added, and reaction mixtures were transferred to sub-micro fluorometer cuvettes (Starna Cells). Following 2 min at 37° C., RNA synthesis was initiated by addition of 2.5 μl 10 mM ApA, and fluorescence emission intensity was monitored 5 min at 37° C. [excitation wavelength=360 nm and emission wavelength=500 nm; excitation and emission slit widths=4 nm; QuantaMaster QM1 spectrofluorometer (PTI)]. The quantity of UMP incorporated into RNA was determined from the quantity of (γ-AmNS)UTP consumed, which, in turn, was calculated as follows (Schlageck et al., (1979) J. Biol. Chem. 254, 12074-12077): (γ-AmNS)UTPconsumed=[(γ-AmNS)UTP0](Ft−F0)/(12.4×F0) (1) where (γ-AmNS)UTP0 is the quantity of (γ-AmNS) UTP at time 0, F0 is the fluorescence emission intensity at time 0, and Ft is the fluorescence emission intensity at time t. Data were fit to full-competitive, partial-competitive, full-noncompetitive, partial-noncompetitive, full-uncompetitive, partial-uncompetitive, full-mixed, and partial-mixed models of inhibition as in the preceding section.

Test [2] has as its target T1, RNAP holoenzyme. The class given is biochemical. The note with it: for Vmax: FIG. 3E. As for the experimental part:
Following 15 min at 37° C., 0.5 μl 1 mg/ml heparin was added, and, following a further 2 min at 37° C., RNA synthesis was initiated by addition of 2 μl 5 mM ApA and 125 μM (or 250 μM, 500 μM, and 1 mM) each of [α-^32P]UTP (0.6 Bq/fmol), ATP, CTP, GTP. Following 5 min at 37° C., reactions were terminated by addition of 10 μl 80% formamide, 10 mM EDTA, 0.04% bromophenol blue, and 0.04% xylene cyanol. Products were heated 10 min at 90° C., resolved by urea-PAGE (Sambrook and Russel, (2001)), and quantified using a storage-phosphor scanner (Storm 860; Molecular Dynamics). Identities of tri- and tetranucleotide abortive products were defined as in Borowiec and Gralla, (1985) J. Mol. Biol. 184, 587-598). Data were fit to full-competitive, partial-competitive, full-noncompetitive, partial-noncompetitive, full-uncompetitive, partial-uncompetitive, full-mixed, and partial-mixed models of inhibition using the Fit-To-Model feature of the SigmaPlot Enzyme Kinetics Module (SPSS).

Read-outs that look alike come from different tables or passages of the source.

T1 sequence (P0A8V2 whole entry): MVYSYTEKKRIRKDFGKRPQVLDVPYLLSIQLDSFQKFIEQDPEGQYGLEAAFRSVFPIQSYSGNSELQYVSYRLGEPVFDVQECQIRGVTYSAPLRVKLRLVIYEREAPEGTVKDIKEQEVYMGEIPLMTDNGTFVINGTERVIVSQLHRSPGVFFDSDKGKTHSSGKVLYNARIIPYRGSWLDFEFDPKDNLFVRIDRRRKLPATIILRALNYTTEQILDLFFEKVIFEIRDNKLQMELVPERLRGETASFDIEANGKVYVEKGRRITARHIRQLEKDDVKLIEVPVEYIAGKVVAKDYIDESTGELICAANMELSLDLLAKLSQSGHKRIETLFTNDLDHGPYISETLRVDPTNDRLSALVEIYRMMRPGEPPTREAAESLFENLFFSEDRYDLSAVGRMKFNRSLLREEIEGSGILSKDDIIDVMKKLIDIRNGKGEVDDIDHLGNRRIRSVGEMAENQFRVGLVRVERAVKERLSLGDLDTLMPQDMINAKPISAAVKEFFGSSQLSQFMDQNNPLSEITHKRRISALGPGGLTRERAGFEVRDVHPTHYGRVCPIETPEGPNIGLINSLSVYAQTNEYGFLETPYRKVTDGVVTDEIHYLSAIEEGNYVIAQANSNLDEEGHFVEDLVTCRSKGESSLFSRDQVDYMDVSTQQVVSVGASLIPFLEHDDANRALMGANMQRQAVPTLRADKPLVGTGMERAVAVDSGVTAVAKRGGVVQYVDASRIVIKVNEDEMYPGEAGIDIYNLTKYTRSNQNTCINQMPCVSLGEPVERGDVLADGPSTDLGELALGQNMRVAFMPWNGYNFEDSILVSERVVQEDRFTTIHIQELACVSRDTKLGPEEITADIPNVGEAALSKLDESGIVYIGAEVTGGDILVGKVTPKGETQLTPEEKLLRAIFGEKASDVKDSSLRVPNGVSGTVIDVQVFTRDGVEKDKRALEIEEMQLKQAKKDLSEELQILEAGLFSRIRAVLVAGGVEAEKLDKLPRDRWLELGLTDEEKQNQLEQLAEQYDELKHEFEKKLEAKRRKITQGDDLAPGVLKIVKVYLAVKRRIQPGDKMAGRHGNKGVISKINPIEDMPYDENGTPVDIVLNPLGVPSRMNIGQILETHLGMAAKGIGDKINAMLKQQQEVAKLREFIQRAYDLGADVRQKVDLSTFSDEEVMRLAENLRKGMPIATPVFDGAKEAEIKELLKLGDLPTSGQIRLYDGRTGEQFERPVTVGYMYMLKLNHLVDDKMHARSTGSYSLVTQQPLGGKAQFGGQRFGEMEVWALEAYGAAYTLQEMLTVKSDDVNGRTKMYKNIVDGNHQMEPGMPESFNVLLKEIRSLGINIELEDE
T1 sequence (P00579 whole entry, further chain): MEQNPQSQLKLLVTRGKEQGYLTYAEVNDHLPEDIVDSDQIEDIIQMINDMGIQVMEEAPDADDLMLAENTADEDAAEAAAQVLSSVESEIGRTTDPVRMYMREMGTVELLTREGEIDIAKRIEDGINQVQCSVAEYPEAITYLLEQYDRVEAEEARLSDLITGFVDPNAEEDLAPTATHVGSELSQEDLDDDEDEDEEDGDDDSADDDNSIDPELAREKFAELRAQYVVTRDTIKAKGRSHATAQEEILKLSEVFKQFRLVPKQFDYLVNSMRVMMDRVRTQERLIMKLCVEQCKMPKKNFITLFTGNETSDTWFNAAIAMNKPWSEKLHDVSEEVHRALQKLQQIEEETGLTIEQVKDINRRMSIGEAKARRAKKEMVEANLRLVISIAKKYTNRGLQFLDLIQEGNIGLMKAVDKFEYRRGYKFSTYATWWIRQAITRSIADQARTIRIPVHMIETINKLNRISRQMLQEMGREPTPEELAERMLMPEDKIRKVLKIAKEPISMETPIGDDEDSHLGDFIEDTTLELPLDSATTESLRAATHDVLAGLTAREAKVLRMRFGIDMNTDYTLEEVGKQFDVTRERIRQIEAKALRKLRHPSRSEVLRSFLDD
T1 sequence (P0A7Z4 whole entry, further chain): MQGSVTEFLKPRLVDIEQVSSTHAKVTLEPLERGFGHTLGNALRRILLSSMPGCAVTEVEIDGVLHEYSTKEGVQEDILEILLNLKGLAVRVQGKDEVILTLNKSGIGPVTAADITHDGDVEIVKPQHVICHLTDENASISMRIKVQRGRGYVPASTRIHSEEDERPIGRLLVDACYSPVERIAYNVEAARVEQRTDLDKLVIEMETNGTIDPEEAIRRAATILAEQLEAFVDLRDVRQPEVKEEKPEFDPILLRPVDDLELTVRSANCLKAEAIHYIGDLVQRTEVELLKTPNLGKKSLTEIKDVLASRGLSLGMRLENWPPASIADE
T1 sequence (P0A800 whole entry, further chain): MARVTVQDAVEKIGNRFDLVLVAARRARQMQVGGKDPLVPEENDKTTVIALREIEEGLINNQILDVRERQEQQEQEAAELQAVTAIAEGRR
T1 sequence (P0A8T7 whole entry): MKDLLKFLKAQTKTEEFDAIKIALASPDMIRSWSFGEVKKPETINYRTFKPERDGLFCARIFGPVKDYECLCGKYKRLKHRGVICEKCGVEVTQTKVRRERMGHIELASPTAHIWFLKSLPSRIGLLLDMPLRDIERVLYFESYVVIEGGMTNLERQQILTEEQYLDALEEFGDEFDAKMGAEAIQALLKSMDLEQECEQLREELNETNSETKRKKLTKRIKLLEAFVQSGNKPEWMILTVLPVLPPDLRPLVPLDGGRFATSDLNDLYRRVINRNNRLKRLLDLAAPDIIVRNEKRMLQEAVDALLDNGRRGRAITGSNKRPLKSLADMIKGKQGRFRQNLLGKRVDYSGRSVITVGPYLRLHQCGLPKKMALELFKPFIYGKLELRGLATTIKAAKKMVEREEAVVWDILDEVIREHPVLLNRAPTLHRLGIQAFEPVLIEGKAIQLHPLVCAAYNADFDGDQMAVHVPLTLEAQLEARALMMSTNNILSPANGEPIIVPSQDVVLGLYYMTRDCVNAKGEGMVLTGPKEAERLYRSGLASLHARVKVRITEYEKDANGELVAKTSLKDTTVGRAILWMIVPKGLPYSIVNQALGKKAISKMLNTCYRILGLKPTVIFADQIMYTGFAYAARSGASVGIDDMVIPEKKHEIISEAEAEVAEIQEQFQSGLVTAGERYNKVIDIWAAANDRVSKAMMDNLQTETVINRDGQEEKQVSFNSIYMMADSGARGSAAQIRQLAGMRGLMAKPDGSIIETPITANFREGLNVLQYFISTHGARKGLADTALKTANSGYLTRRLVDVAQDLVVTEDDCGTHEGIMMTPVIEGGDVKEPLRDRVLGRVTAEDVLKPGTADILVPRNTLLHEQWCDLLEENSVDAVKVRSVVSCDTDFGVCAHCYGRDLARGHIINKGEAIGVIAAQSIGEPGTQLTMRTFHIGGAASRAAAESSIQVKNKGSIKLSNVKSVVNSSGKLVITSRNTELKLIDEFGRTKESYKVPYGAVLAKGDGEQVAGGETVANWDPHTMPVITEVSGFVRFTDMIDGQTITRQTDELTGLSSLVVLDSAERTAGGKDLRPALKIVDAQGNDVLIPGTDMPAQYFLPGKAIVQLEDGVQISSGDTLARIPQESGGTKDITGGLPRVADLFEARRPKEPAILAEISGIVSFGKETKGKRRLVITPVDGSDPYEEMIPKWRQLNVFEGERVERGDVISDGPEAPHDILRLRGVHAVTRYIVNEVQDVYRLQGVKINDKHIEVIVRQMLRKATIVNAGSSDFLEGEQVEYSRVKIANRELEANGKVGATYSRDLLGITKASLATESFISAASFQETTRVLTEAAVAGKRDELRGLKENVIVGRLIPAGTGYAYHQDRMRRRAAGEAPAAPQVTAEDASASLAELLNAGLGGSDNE

For the substance Microcin J25 [MccJ25], the Vmax in test [1] (at 1 μM MccJ25) was 5.3±2.8 mol/mol template/min; in test [1] (at 10 μM MccJ25) it was 2.4±2.9 mol/mol template/min; in test [2] (at 1 μM MccJ25) it was 1.9±0.4 mol/mol template/min; in test [2] (at 10 μM MccJ25) it was 1.4±0.7 mol/mol template/min. Also, the “mode of inhibition with respect to NTPs” value in test [2] is “partial competitive”. Besides, the “inhibition of formation of abortive products (3 nt and 4 nt RNA species)” value in test [2] (100 μM MccJ25, 5 min at 37° C.) is reported as 86%. Also, the “inhibition of formation of the full-length product (26 nt RNA species)” value in test [2] (100 μM MccJ25, 5 min at 37° C.) is listed as 94%. For the same substance, in test [2] (NTP 12.5, 25, 50, 100 μM), the “effect of high NTP concentrations on inhibition” value was “can overcome inhibition”.
